Columns and labels:
[1] = test system: normal epithelial cells in the lung (HBEC); test: Amount of secreted EVs per cell by ExoScreen in normal cells; format: cell-based
Method: (§1) EV detection was performed using an AlphaLISA reagent (Perkin Elmer) composed of AlphaScreen streptavidin-coated donor beads (6760002), AlphaLISA unconjugated acceptor beads (6062011), and an AlphaLISA universal buffer (AL001F), a 96-well half-area white plate (6005560, Perkin Elmer), and a detection device EnSpire Alpha 2300 Mutilabel plate reader (Perkin Elmer). Specifically, the EV detection was performed as follows. Each well of the plate was filled with 5 μL of EVs or 10 μL of CM (cell culture supernatant), 10 μL of a 5 nmol/L biotinylated antibody solution prepared using the above-described buffer, and 10 μL of 50 µg/mL AlphaLISA acceptor bead-conjugated antibody. For detection of CD9/CD9 double-positive EVs, a biotinylated anti-human CD9 antibody and an anti-human CD9 antibody conjugated with AlphaLISA acceptor beads were used. For detection of CD9/CD63 double-positive EVs, a biotinylated anti-human CD9 antibody and an anti-human CD63 antibody conjugated with AlphaLISA acceptor beads were used. For detection of CD63/CD63 double-positive EVs, a biotinylated anti-human CD63 antibody and an anti-human CD63 antibody conjugated with AlphaLISA acceptor beads were used. The plate was incubated at 37° C. for 1 hour, and then, 25 μL of 80 μg/mL AlphaScreen streptavidin-coated donor beads were added thereto. The plate was incubated at 37° C. for another 30 minutes in the dark. Next, luminescence in the wells of the plate was measured using the detection device with the excitation wavelength set to 680 nm and the emission detection wavelength set to 615 nm. The antibodies used were both commercially available products, namely, a mouse monoclonal anti-human CD9 (Clone 12A12) and a CD63 antibody (Clone 8A12) (both available from Cosmo Bio).
(§2) The present example examined the effect of NCT-503 on normal cells to provide indirect data showing that NCT-503 reduced EV secretion specific to cancer cells. […] Thereafter, the cell viability was determined and also the amount of secreted EVs was measured by the ExoScreen method.
(§3) Specifically, the test was performed in the following manner. […] Then, the medium in the wells was collected and the cells in the wells were counted. As a control, the same procedures as described above were performed except that DMSO was added instead of the inhibitor solution, and the cells in the wells were counted. Then, the cell viability was calculated assuming that the number of cells in the NCT-free (0 M) medium (i.e., DMSO-containing medium) of the control was a relative value of 1. Also, the amount of secreted EVs was measured by ExoScreen.

[2] = test system: normal epithelial cells in the large intestine (HCoEpiC); test: as above; format: cell-based
Method: as §1, §2, §3

lung cancer cells A549 = test: CD63 immunofluorescence / coimmunostaining (intracellular EV accumulation); format: cell-based, human; conditions: A549, 2.5 μmol/L, 48 hours, serine-deficient medium, compared with NC (DMSO)
Method: (§4) Colorectal cancer cells HCT116 and lung cancer cells A549 were transfected with siRNA (siPSAT1) in the same manner as in the item (2) in Example A1, and EV biogenesis after PSAT1 silencing was examined. For the respective silenced transformants, CD63 and PSAT1 were examined by immunofluorescence.
(§5) Further, coimmunostaining of the EV marker CD63 and also an early endosome marker EEA1 or a late endosome marker Rab7 was conducted for the PSAT1-silenced transformants. As a result, no overlap was observed between EEA1 and CD63 in either the PSAT1-silenced transformants or the negative control transformants. […] On this account, the CD63 single-positive area was measured based on the intensity. […] This confirmed that EVs had accumulated in the cells.
(§6) Specifically, the test was performed in the following manner. Colorectal cancer cells HCT116 and lung cancer cells A549 were each seeded in a 6-well plate at 1.5×10^5 cells/well (Day 0), and incubated for 24 hours in a medium (DMEM with 10% FBS, 1×anti-anti medium). After the incubation (Day 1), the above-described medium was removed, and thereafter, a serine-deficient medium and an inhibitor solution were added to the wells. The inhibitor solution was prepared by dissolving NCT-503 in DMSO, and the concentration of the inhibitor per well was set to 2.5 μmol/L. Then, after another 48 hours of incubation (Day 3), the medium in the wells was collected and the cells in the wells were counted. As negative controls (NC), the test was performed in the same manner, except that DMSO was added instead of the inhibitor solution.
(§7) EVs accumulated in the cells were analyzed in the following manner. Specifically, the collected cells were immunostained, the CD63 single-positive area was measured based on the fluorescence intensity, and the fluorescence intensity measured in the area was divided by the number of nuclei to determine the amount of EVs accumulated in each cell. On the other hand, secreted EVs were collected from the collected medium and then subjected to the NTA. In the NTA, the amount of secreted EVs was determined as a relative value calculated assuming that the amount of the secreted EVs in the negative control was 1.

[3] = test system: colorectal cancer cells HCT116; test: as above; format: cell-based, human; conditions: HCT116, 2.5 μmol/L, 48 hours, serine-deficient medium, compared with NC (DMSO)
Method: as §4, §5, §6, §7

For `Cc1cc(C)nc(NC(=S)N2CCN(Cc3ccc(C(F)(F)F)cc3)CC2)c1` [NCT-503], the “difference in amount of secreted EVs, NCT-503-containing medium vs DMSO-containing medium without NCT” value ([1]; normal epithelial cells in the lung, 0.15625 to 2.5 μmol/L) was “almost no difference”, the “relative value of the amount of secreted EVs with respect to DMSO-containing medium without NCT (0 µM)” value ([1]; normal epithelium cells in the lung, NCT-503 2.5 mol/L (so in the source), 48 hours, ExoScreen) was 1.17 and the “difference in amount of secreted EVs, NCT-503-containing medium vs DMSO-containing medium without NCT” value ([2]; normal epithelial cells in the large intestine, 0.15625 to 2.5 μmol/L) was “almost no difference”. For the same compound, the “relative value of the amount of secreted EVs with respect to DMSO-containing medium without NCT (0 µM)” value ([2]; normal epithelium cells in the large intestine, NCT-503 2.5 mol/L (so in the source), 48 hours, ExoScreen) was 0.98, the “amount of EVs accumulated in each cell (CD63 single-positive fluorescence intensity / number of nuclei)” value (lung cancer cells A549) was “larger” and the “amount of EVs accumulated in each cell (CD63 single-positive fluorescence intensity / number of nuclei)” value [3] was “larger”.

Reference: patent US20260218197A1, “EXTRACELLULAR VESICLE SECRETION REDUCING AGENT FOR REDUCING EXTRACELLULAR VESICLE SECRETION, AND USE OF THE SAME” (THEORIA SCIENCE INC., priority 2020, published 2026)
